Data taken from the supplement of paper PMC10307832.

Key:
Experiment in all cases: relative viability (nuclei count vs DMSO), 5 days (fraction); higher = more cells survive
Cediranib = compound: COc1cc2c(Oc3ccc4[nH]c(C)cc4c3F)ncnc2cc1OCCCN1CCCC1 [Cediranib]
Outline: (§1)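 On vehicle-anchored 1536-well plates, lung cancer cell lines held overnight at 37 °C were pinned with five library-drug doses (not always all listed) spaced by √10. With no medium change over 5 days, they were then fixed, permeabilised and Hoechst-stained in one step and imaged at 4×. MetaXpress counted nuclei, and viability is the median across plates of treated-well over vehicle-well nuclei. Acceptance needed control CV below 25% and at least one doubling.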

Decitabine = compound: Nc1ncn([C@H]2C[C@H](O)[C@@H](CO)O2)c(=O)n1 [Decitabine]
Outline: as §1

Halofuginone = compound: O=C(C[C@H]1NCCC[C@@H]1O)Cn1cnc2cc(Br)c(Cl)cc2c1=O (racemic) [Halofuginone]
Outline: as §1

Cell Line	relative viability (Cediranib; 0.04 µM)	relative viability (Cediranib; 0.1265 µM)	relative viability (Cediranib; 0.4 µM)	relative viability (Cediranib; 1.265 µM)	relative viability (Cediranib; 4 µM)	relative viability (Decitabine; 0.04 µM)	relative viability (Decitabine; 0.1265 µM)	relative viability (Decitabine; 0.4 µM)	relative viability (Decitabine; 1.265 µM)	relative viability (Decitabine; 4 µM)	relative viability (Halofuginone; 0.001 µM)	relative viability (Halofuginone; 0.003162 µM)	relative viability (Halofuginone; 0.01 µM)	relative viability (Halofuginone; 0.03162 µM)	relative viability (Halofuginone; 0.1 µM)	relative viability (Decitabine; 2 µM, anchor plate)
IA-LM	0.951	0.948	0.877	0.888	1.08	0.509	0.431	0.272	0.192	0.158	0.995	0.94	0.944	0.862	0.354	–
LC-2-ad	1.04	0.871	0.953	0.955	0.785	0.832	0.839	0.679	0.411	0.501	1.11	0.944	0.932	0.978	0.833	0.786
LCLC-97TM1	1.04	–	0.941	0.949	0.984	0.425	0.538	0.209	0.134	0.15	0.913	0.938	1.01	0.995	0.679	0.238
LCLC-103H	1.07	1.03	0.952	1.06	1.06	1.07	1.05	0.917	0.85	0.805	0.992	1.05	0.994	0.96	0.945	0.736
LK-2	1.03	0.86	0.909	0.965	0.821	0.848	1.03	0.721	0.472	0.484	0.91	0.927	1.03	1.02	0.741	0.302
LOU-NH91	0.967	1.15	0.932	0.878	0.958	0.781	0.928	0.886	0.83	0.848	1.03	0.929	0.98	1.06	0.912	0.808
LU99A	0.982	–	0.976	0.845	0.985	0.923	0.987	0.981	0.868	0.773	0.971	0.955	0.928	0.814	0.821	0.906
LXF-289	1.06	0.778	0.928	1.01	1.03	0.778	0.651	0.441	0.345	0.312	0.98	1.02	0.994	1.01	1	0.387
NCI-H23	0.882	0.75	0.847	0.844	1	0.671	0.462	0.341	0.26	0.293	0.979	0.937	0.868	0.874	0.671	0.324
NCI-H322M	0.929	1.18	0.871	0.819	1.02	0.685	0.821	0.742	0.591	0.587	0.991	0.956	0.883	0.649	0.478	0.699
NCI-H358	0.945	1.13	0.893	0.9	0.899	0.65	0.456	0.407	0.285	0.224	0.994	0.892	0.705	0.341	0.142	0.229
NCI-H441	1.04	0.985	0.884	1.03	1.09	0.406	0.381	0.274	0.229	0.238	1.14	1.12	1.06	0.943	0.596	0.25
NCI-H460	1.02	0.98	0.957	0.984	1.05	0.929	0.938	0.766	0.38	0.265	1.04	1.03	0.973	0.975	0.571	0.495
NCI-H520	1.12	0.747	0.917	0.804	0.865	0.847	0.811	0.508	0.472	0.374	1.01	1.07	1.04	0.91	0.635	0.517
NCI-H522	1.04	0.745	0.947	0.961	1.02	0.949	0.938	0.624	0.627	0.611	1.06	0.924	1.04	1.01	0.769	0.686
NCI-H596	1.06	0.959	0.935	0.907	1.1	0.894	0.871	0.607	0.799	0.692	1.01	0.965	1.13	0.882	0.549	1.04
NCI-H647	1.06	0.911	0.831	0.895	1.01	0.732	0.817	0.451	0.249	0.233	1.11	0.971	0.905	0.815	0.599	0.403
NCI-H650	0.892	0.787	0.961	0.87	0.996	0.717	0.596	0.363	0.325	0.332	1.04	1.01	0.956	0.881	0.719	0.31
NCI-H661	0.988	0.98	0.974	0.957	1.1	0.928	0.944	0.764	0.59	0.557	1.01	0.962	0.956	0.907	0.85	0.565
NCI-H727	0.631	0.824	0.906	0.935	0.989	0.733	0.658	0.662	0.579	0.553	1.01	0.88	0.788	0.848	0.65	0.903
NCI-H838	1.02	0.965	0.916	0.827	1.06	0.687	0.59	0.434	0.461	0.314	1	1	0.945	0.765	0.409	0.466
NCI-H1299	1.02	1.02	0.99	1.03	1.09	1.03	1.02	1.02	0.943	0.874	1.06	1.06	0.999	0.979	0.886	–
